In patent publication US4210638A, “Antiviral composition and method of treating virus diseases” (PCR, Inc., priority 1978, dated 1980):
Where “and” joins values, the source holds several entries; their conditions need not be identical. Equal values may be shown once. Read-outs that look alike come from different tables or passages of the source.

Experiments:
Solubility = assay type: physicochemical
Metabolic stability = conditions: versus prior antiviral agents
[1] = Incubation with HNO2 (pH 4.5) at room temperature; assay type: physicochemical; conditions: 9 hours
Method: (§1) The results of incubation with HNO2 (pH 4.5) at room temperature were identical to those obtained above.

HSV-2 = assay: Antiviral activity vs HSV-2 in HEp-2 cells (plaque assay in BHK cells); assay type: cell-based; conditions: for Average Log10 S.F.: +H4 U
Method: (§2) The culture medium containing the nucleoside analogs at varying concentrations are added to the infected cultures. In the case of HEp-2 cells which contain high deaminase levels, H4 U is incorporated into the medium. At 48 hours, virus is harvested from the cultures by freezing and thawing. The virus produced from each culture is titred by plaque assay in BHK cells. By using this protocol the antiviral effectiveness of F3 methyl dC can be compared directly with the effectiveness of other antiviral agents. Furthermore, by including H4 U in the medium, the effectiveness of F3 methyl dC can be determined without deamination at the nucleoside level.

[2] = test system: Herpes-varicella-zoster virus (VZV); assay: Antiviral activity against cells infected with Herpes-varicella-zoster virus; assay type: cell-based
HEp-2 cells = assay: Cytotoxicity vs HEp-2 cells (colony formation, % survival); conditions: for % Survival: 2880 min
[3] = as above; conditions: human, hep-2 cells; for viability at 48 h, 60 µM: % S of HEp-2 cells, 0.06 mM; for viability at 48 h, 3 µM: 0.003 mM; for viability at 48 h, 30 µM: 0.03 mM; for viability at 48 h, 300 µM: 0.3 mM
[4] = Incubation with acetate buffer (pH 4.5); assay type: physicochemical; conditions: 9 hours
Method: as §1

[5] = Survival / toxicity in the mouse; conditions: in vivo
Method: That is, 3 mg/kg body weight to 75 mg/kg body weight; for example, about 10 mg/kg body weight per day for 7 days or 700 mg for a 70 kg man per day for 7 days. […] 100 percent survival was obtained with a dose of 50 mg.

[6] = target: T1, HSV-2 induced pyrimidine deoxyribonucleoside kinase (Human herpesvirus 2 strain HG52, UniProt P89446); assay: Phosphorylation by HSV-2 induced pyrimidine deoxyribonucleoside kinase; assay type: biochemical
T1 construct: preparation not described in the excerpts
Text: The following spots were eluted into H2 O and scanned from 225 to 350 nm: (a) standard, (b) F3 methyl dC standard, […] spot after cytidine deaminase treatment of F3 dT and […] spot after cytidine deaminase treatment of F3 methyl dC. The u.v. absorption profile of F3 dT derived from deamination of F3 methyl dC is identical to that obtained from authentic F3 dT.
Solutions a, c, and d, above, were adjusted to the same O. D. and used as substrates for HSV-2 induced pyrimidine deoxyribonucleoside kinase. Results:
Stock solutions of F3 dT and F3 methyl dC were made up and adjusted to the same concentration as the F3 dT and F3 methyl dC purified chromatographically (solutions a and b, respectively). Usually, F3 methyl dC is phosphorylated 1/6 of the extent that F3 dT is phosphorylated. […] This experiment was performed twice. Results:
Values for chromatographically purified samples are probably lower due to impurities arising from non-acid washed paper.

cytidine deaminase = assay: Incubation with crude cytidine deaminase extract of HEP-2 cells (deamination); assay type: in vitro ADME, human; conditions: crude HEP-2 cytidine deaminase extract; Whatman 3MM chromatography
HSV-1 = assay: Antiviral activity vs HSV-1 in HEp-2 cells (plaque assay in BHK cells); assay type: cell-based; conditions: for Log10 S.F. vs HSV-1: + H4 U (from FIG. 3)
Method: as §2

[7] = % Survival, +H4 U 500 μg/ml (experiment 3 and 4)

T1 sequence (P89446 whole entry): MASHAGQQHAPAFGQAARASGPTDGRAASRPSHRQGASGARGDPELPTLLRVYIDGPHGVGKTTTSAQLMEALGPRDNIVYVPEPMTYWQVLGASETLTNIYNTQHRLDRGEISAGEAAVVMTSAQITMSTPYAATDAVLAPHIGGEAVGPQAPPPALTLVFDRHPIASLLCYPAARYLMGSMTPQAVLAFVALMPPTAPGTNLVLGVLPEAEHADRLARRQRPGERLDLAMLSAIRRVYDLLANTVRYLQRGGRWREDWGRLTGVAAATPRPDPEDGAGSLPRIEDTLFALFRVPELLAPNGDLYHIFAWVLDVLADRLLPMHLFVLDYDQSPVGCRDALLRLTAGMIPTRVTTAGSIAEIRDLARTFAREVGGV

Structure (SMILES): Nc1nc(=O)n([C@H]2C[C@H](O)[C@@H](CO)O2)cc1C(F)(F)F [F3 methyl dC, 5-trifluoromethyl-2'-deoxycytidine]
- solubility in DMSO (Solubility; DMSO): a solvent for the F3 methyl dC
- solubility in acetone (Solubility; acetone): insoluble in acetone
- solubility in water (Solubility; water): partially soluble in water
- metabolic stability (Metabolic stability): substantially increased metabolic stability
- conversion to a product that has the same Rf as F3 dT [1]: approximately 98%
- Log10 Surviving Fraction of Plaque Forming Units (HSV-2; 0.003 mM, +H4 U 500 μg/ml (experiment 3 and 4)): -1.9
- Average Log10 S.F. (HSV-2; 0.003 mM, average): -1.7
- Average Log10 S.F. (HSV-2; 0.03 mM, average): -3.6
- Log10 Surviving Fraction of Plaque Forming Units (HSV-2; 0.3 mM, +H4 U 100 μg/ml (experiment 1 and 2)): -3.7
- Average Log10 S.F. (HSV-2; 0.3 mM, average): -3.7
- log reduction at 3 µM (HSV-2; Human alphaherpesvirus 2, 48 h, 0.003 mM, -H4 U, average, read-out: Average Log10 S.F.): 0.94
- log reduction at 30 µM (HSV-2; Human alphaherpesvirus 2, 48 h, 0.03 mM, +2'dH4 U 500 μg/ml, read-out: Log10 S.F. HSV-2): 3.5
- log reduction at 30 µM (HSV-2; Human alphaherpesvirus 2, 48 h, 0.03 mM, +H4 U 500 μg/ml, read-out: Log10 S.F. HSV-2): 3.4
- log reduction at 30 µM (HSV-2; Human alphaherpesvirus 2, 48 h, 0.03 mM, -H4 U, average, read-out: Average Log10 S.F.): 3.2
- log reduction at 30 µM (HSV-2; Human alphaherpesvirus 2, 48 h, 0.03 mM, no addition, read-out: Log10 S.F. HSV-2): 3.3
- log reduction at 300 µM (HSV-2; Human alphaherpesvirus 2, 48 h, 0.3 mM, -H4 U, average, read-out: Average Log10 S.F.): 3.7
- log reduction at 300 µM (HSV-2; Human alphaherpesvirus 2, 48 h, 0.3 mM, -H4 U, read-out: Log10 Surviving Fraction of Plaque Forming Units): 3.7
- log reduction at 30 µM (HSV-2; Human alphaherpesvirus 2, 48 h, read-out: Log10 Surviving Fraction of Plaque Forming Units, 0.03 mM, -H4 U): 3.1
- antiviral activity against cells infected with VZV [2]: selective antiviral activity
- % Survival (HEp-2 cells; 0.003 mM, +H4 U 100 μg/ml (experiment 1 and 2), 3 µM): 93%
- % Survival (HEp-2 cells; 0.003 mM, +H4 U 500 μg/ml (experiment 3 and 4), 3 µM): 61%
- % Survival (HEp-2 cells; 0.003 mM, -H4 U, 3 µM): 3% and 0.1% and 0.6%
- % Survival (HEp-2 cells; 0.03 mM, +H4 U 500 μg/ml (experiment 3 and 4), 30 µM): 31%
- cytotoxicity at concentrations with antiviral activity (HEp-2 cells; +H4 U): only marginally cytotoxic
- increased survival with H4 dU than with H4 U (HEp-2 cells; F3 methyl dC with H4 dU versus with H4 U): ~5 fold
- therapeutic index (HEp-2 cells; with H4 U, HSV-2 vs HEp-2 cytotoxicity): high therapeutic index
- cytotoxicity at concentrations with antiviral activity (HEp-2 cells; without H4 U): extremely cytotoxic
- cytotoxicity at effective antiviral concentrations (HEp-2 cells; ±H4 U (summary of Table IV)): marginal to only moderate cytotoxicity
- viability at 48 h, 60 µM ([3]; +2'dH4 U 500 μg/ml): 50 ± 5%
- viability at 48 h, 60 µM ([3]; +H4 U 500 μg/ml): 9 ± 3%
- viability at 48 h, 60 µM ([3]; no addition): < 0.006%
- viability at 48 h, 3 µM ([3]; % Survival, +H4 U 100 μg/ml (experiment 1 and 2)): 100%
- viability at 48 h, 3 µM [3, 7]: 53%
- viability at 48 h, 30 µM [3, 7]: 25%
- viability at 48 h, 300 µM [3, 7]: 0.001%
- viability at 48 h, 3 µM ([3]; Average % S, +H4 U, average): 77%
- viability at 48 h, 3 µM ([3]; Average % S, -H4 U, average): 0.95%
- viability at 48 h, 30 µM ([3]; Average % S, +H4 U, average): 32%
- viability at 48 h, 30 µM ([3]; Average % S, -H4 U, average): < 0.01%
- viability at 48 h, 300 µM ([3]; Average % S, +H4 U, average): < 0.01%
- viability at 48 h, 300 µM ([3]; Average % S, -H4 U, average): < 0.01%
- modification in acetate buffer [4]: did not lead to modification
- survival at 168 h ([5]; 50 mg/kg/day for 7 days, coadministered with H4 U): 100%
- survival at 168 h ([5]; 250 mg/kg once per day for 7 days, H4 U coadministered one hour prior): 60%
- LD50 at 168 h ([5]; coadministered with H4 U, for 7 days): 325 mg/kg
- ratio of phosphorylation relative to F3 dT ([6]; chromatographically purified): Approx 1/3
- nmoles phosphorylated/4 hrs ([6]; chromatographically purified, value in parentheses (experiment performed twice)): 0.06 nmoles/4 hrs
- nmoles phosphorylated/4 hrs ([6]; chromatographically purified, value outside parentheses): 0.04 nmoles/4 hrs
- ratio of phosphorylation relative to F3 dT ([6]; standard solutions): Approx 1/4
- nmoles phosphorylated/4 hrs ([6]; standard solutions, value in parentheses (experiment performed twice)): 0.08 nmoles/4 hrs
- nmoles phosphorylated/4 hrs ([6]; standard solutions, value outside parentheses): 0.48 nmoles/4 hrs
- extent of phosphorylation relative to F3 dT ([6]; usual value): 1/6
- chromatographic change on incubation with cytidine deaminase (cytidine deaminase): formation of an Rf =0.43 spot and disappearance of the 0.80 spot
- Log10 S.F. vs HSV-1 (HSV-1; 0.003 mM): -4.2
- Log10 S.F. vs HSV-1 (HSV-1; 0.03 mM): < -4.6
- antiviral activity vs HSV-1 compared with F3 dT±H4 U (HSV-1; ±H4 U (FIG. 3)): more potent antiviral activity than F3 dT±H4 U
